One data set concerns the target T1, Aurora-2 (Homo sapiens, UniProt O14965).
T1 sequence (O14965 1-403): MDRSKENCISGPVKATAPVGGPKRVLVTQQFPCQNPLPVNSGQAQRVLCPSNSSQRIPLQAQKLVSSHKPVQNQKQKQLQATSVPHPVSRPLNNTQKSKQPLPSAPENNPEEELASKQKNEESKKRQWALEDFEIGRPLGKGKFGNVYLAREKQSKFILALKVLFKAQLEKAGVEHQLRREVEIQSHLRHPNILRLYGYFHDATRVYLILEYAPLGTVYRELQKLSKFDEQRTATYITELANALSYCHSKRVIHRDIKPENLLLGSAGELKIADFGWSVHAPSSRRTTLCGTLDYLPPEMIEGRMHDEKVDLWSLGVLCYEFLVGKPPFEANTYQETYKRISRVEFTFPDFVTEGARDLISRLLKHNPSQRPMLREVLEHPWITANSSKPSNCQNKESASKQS
Description: Ki determination for the inhibition of Aurora-2 (coupled enzyme assay). It counts as biochemical. Conditions: 70 nM Aurora-2, 30° C. The protocol: Compounds were screened in the following manner for their ability to inhibit Aurora-2 using a standard coupled enzyme assay (Fox et al (1998) Protein Sci 7, 2249).
To an assay stock buffer solution containing 0.1M HEPES 7.5, 10 mM MgCl2, 1 mM DTT, 25 mM NaCl, 2.5 mM phosphoenolpyruvate, […], 30 mg/ml pyruvate kinase, 10 mg/ml lactate dehydrogenase, […], and 800 μM peptide (LRRASLG, American Peptide, Sunnyvale, Calif.) was added a DMSO solution of a compound of the present invention to a final concentration of 30 μM. The resulting mixture was incubated at 30° C. for 10 min. The reaction was initiated by the addition of 10 μL of Aurora-2 stock solution to give a final concentration of 70 nM in the assay. The rates of reaction were obtained by monitoring absorbance at 340 nm over a 5 minute read time at 30° C. using a BioRad Ultramark plate reader (Hercules, Calif.). The Ki values were determined from the rate data as a function of inhibitor concentration.

Another data set addresses T2, GSK-3β (AA 1-420) (Homo sapiens, UniProt P49841).
T2 construct: GSK-3β (AA 1-420)
Description: Ki determination for the inhibition of GSK-3 (coupled enzyme system). The data set is classed as biochemical. Particulars: 20 μM ATP, 20 nM GSK-3β, 30° C. The protocol: Compounds were screened for their ability to inhibit GSK-3β (AA 1-420) activity using a standard coupled enzyme system (Fox et al. (1998) Protein Sci. 7, 2249). Reactions were carried out in a solution containing 100 mM HEPES (pH 7.5), 10 mM MgCl2, 25 mM NaCl, 300 μM NADH, 1 mM DTT and 1.5% DMSO. Final substrate concentrations in the assay were 20 μM ATP (Sigma Chemicals, St Louis, Mo.) and 300 μM peptide (HSSPHQS (PO3H2) EDEEE, American Peptide, Sunnyvale, Calif.). Reactions were carried out at 30° C. and 20 nM GSK-3β. Final concentrations of the components of the coupled enzyme system were 2.5 mM phosphoenolpyruvate, 300 μM NADH, 30 μg/ml pyruvate kinase and 10 μg/ml lactate dehydrogenase.
An assay stock buffer solution was prepared containing all of the reagents listed above with the exception of ATP and the test compound of interest. The assay stock buffer solution (175 μl) was incubated in a 96 well plate with 5 μl of the test compound of interest at final concentrations spanning 0.002 μM to 30 μM at 30° C. for 10 min. […] The reaction was initiated by the addition of 20 μl of ATP (final concentration 20 μM). Rates of reaction were obtained using a Molecular Devices Spectramax plate reader (Sunnyvale, Calif.) over 10 min at 30° C. The Ki values were determined from the rate data as a function of inhibitor concentration.

We go through 31 compounds from US6653300B2, “Pyrazole compounds useful as protein kinase inhibitors” (Vertex Pharmaceuticals Incorporated, priority 2000, dated 2003).

T2 sequence (P49841 whole entry, the tested form may be a part): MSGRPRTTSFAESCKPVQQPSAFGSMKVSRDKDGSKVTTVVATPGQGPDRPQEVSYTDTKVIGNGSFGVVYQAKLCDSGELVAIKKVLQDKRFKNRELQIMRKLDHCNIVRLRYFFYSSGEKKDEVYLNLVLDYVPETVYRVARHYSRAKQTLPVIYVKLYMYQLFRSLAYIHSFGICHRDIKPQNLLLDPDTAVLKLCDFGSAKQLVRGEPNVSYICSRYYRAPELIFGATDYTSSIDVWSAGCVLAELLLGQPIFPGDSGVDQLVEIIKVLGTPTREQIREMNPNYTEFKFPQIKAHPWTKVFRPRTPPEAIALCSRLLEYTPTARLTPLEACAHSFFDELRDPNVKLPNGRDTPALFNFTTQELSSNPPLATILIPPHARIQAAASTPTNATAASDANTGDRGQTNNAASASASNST

For `CSc1nc(Nc2cc(C)[nH]n2)cc(N2CCN(C)CC2)n1` [IIIa-14, [6-(4-Methylpiperazin-1-yl)-2-methylsulfanyl-pyrimidin-4-yl]-(5-methyl-2H-pyrazol-3-yl)-amine], the Ki (commonly a measure of affinity in units of concentration, obtained from inhibition or displacement) on Aurora-2 lay within 100 to 1000 nM.
`Cc1cc(Nc2cc(-c3ccccc3)nc(Sc3ccc(NS(=O)(=O)C(C)C)cc3)n2)n[nH]1` [IIIa-24, [2-(4-Isopropanesulfonylamino-phenyl-sulfanyl)-6-phenyl-pyrimidin-4-yl]-(5-methyl-2H-pyrazol-3-yl)-amine]: the melting point (as a rule, the temperature of the solid-liquid transition) is 255 to 257 °C. On GSK-3β (AA 1-420), this compound showed a Ki below 100 nM.
The matching figures for `Cc1cc(Nc2cc(N3CCOCC3)nc(SCc3cccc(Cl)c3)n2)n[nH]1` [IIIa-26, [2-(3-Chloro-benzylsulfanyl)-6-morpholin-4-yl-pyrimidin-4-yl]-(5-methyl-2H-pyrazol-3-yl)-amine]: 224 to 225 °C and 100 to 1000 nM.
As for `COCCNc1cc(Nc2cc(C)[nH]n2)nc(SCc2cccc(Cl)c2)n1` [IIIa-27, [2-(3-Chloro-benzylsulfanyl)-6-(2-methoxy-ethylamino)-pyrimidin-4-yl]-(5-methyl-2H-pyrazol-3-yl)-amine], the melting point was 101 to 102 °C. On GSK-3β (AA 1-420), this compound gave an inhibition constant Ki below 100 nM.
In turn, `CCC(=O)Nc1ccc(Sc2nc(Nc3cc(C4CC4)[nH]n3)cc(-c3ccccc3)n2)cc1` [IIIa-33, (5-Cyclopropyl-2H-pyrazol-3-yl)-[6-phenyl-2-(4-propionylamino-phenyl-sulfanyl)-pyrimidin-4-yl]-amine] gave a melting point of 208 to 209 °C. Also, on GSK-3β (AA 1-420), the Ki lay within 100 to 1000 nM.
On to `Cc1cc(Nc2cc(N3CCOCC3)nc(SCc3ccc4ccccc4c3)n2)n[nH]1` [IIIa-42, (5-Methyl-2H-pyrazol-3-yl)-[6-morpholin-4-yl-2-(naphthalene-2-ylmethylsulfanyl)-pyrimidin-4-yl]-amine], for which the Ki lay in the range of 100 to 1000 nM on GSK-3β (AA 1-420) and 1000 to 10000 nM at Aurora-2.
Regarding `c1ccc(-c2cc(Nc3cc(C4CC4)[nH]n3)nc(Oc3ccc4ccccc4c3)n2)cc1` [IIIb-1], at Aurora-2, the inhibitory constant (Ki) was 100 to 1000 nM.
In turn, `COC(=O)c1cccc(Oc2nc(Nc3cc(C4CC4)[nH]n3)cc(-c3ccccc3)n2)c1` [IIIb-2] returned a Ki at Aurora-2 of 100 to 1000 nM.
Take `c1ccc2cc(Oc3nc(Nc4cc(C5CC5)[nH]n4)cc(N4CCOCC4)n3)ccc2c1` [IIIb-7]: the inhibitory constant (Ki) at GSK-3β (AA 1-420) and on Aurora-2 was 100 to 1000 nM each time.
For the compound `CN1CCN(c2cc(Nc3cc(C4CC4)[nH]n3)nc(Oc3ccc4ccccc4c3)n2)CC1` [IIIb-8], the inhibitory constant (Ki) on Aurora-2 lay in the range of 1000 to 10000 nM.
As to `Cc1cc(Nc2cc(-c3c(C)cccc3C)nc(Oc3ccc4ccccc4c3)n2)n[nH]1` [IIIb-9], the inhibitory constant (Ki) on Aurora-2 fell in the range of 1000 to 10000 nM.
With `COc1nc(Nc2cc(C)[nH]n2)cc(N2CCN(C)CC2)n1` [IIIb-14], the Ki on GSK-3β (AA 1-420) is below 100 nM; at Aurora-2, 1000 to 10000 nM.
As for `CCC(=O)Nc1ccc(Oc2nc(Nc3cc(C)[nH]n3)cc(-c3ccccc3)n2)cc1` [IIIb-15], the Ki at GSK-3β (AA 1-420) and on Aurora-2 was 100 to 1000 nM each time.
With `Cc1cc(Nc2cc(-c3ccccc3)nc(Oc3ccc(NC(=O)C4CC4)cc3)n2)n[nH]1` [IIIb-16], the Ki on GSK-3β (AA 1-420) and at Aurora-2 was 100 to 1000 nM throughout.
Regarding `Cc1cc(Nc2cc(-c3ccco3)[nH]n2)nc(Nc2ccc(Cl)cc2)n1` [IIIc-9, [2-(4-Chlorophenyl)amino-6-methyl-pyrimidin-4-yl]-[5-(furan-2-yl)-2H-pyrazol-3-yl]-amine], the Ki at GSK-3β (AA 1-420) was below 100 nM; at Aurora-2 it was 100 to 1000 nM.
`CCc1cc(Nc2cc(C)[nH]n2)nc(Nc2nc3ccccc3[nH]2)n1` [IIIc-10, [2-(Benzimidazol-2-ylamino-)6-ethyl-pyrimidin-4-yl]-(5-methyl-2H-pyrazol-3-yl)-amine]: the results for the inhibitory constant (Ki) at GSK-3β (AA 1-420) and on Aurora-2 were 1000 to 7000 nM and 1000 to 10000 nM, respectively.
In the case of `Cc1cc(Nc2cc(-c3ccccc3)[nH]n2)nc(Nc2ccc(Cl)cc2)n1` [IIIc-11, [2-(4-Chlorophenyl)amino-6-methyl-pyrimidin-4-yl]-(5-phenyl-2H-pyrazol-3-yl)-amine], the results for the Ki at GSK-3β (AA 1-420) and at Aurora-2 were below 100 nM and 100 to 1000 nM, respectively.
`CCc1cc(Nc2cc(C)[nH]n2)nc(Nc2ccc(Cl)cc2)n1` [IIIc-12, [2-(4-Chlorophenyl)amino-6-ethyl-pyrimidin-4-yl]-(5-methyl-2H-pyrazol-3-yl)-amine]: the Ki at GSK-3β (AA 1-420) and at Aurora-2 was below 100 nM throughout.
For `c1ccc(Nc2nc(Nc3cc(-c4ccco4)[nH]n3)cc(-c3ccccc3)n2)cc1` [IIIc-15, [5-(Furan-2-yl)-2H-pyrazol-3-yl]-(6-phenyl-2-phenylamino-pyrimidin-4-yl)-amine], the Ki at GSK-3β (AA 1-420) and on Aurora-2 was below 100 nM in each case.
`CCc1cc(Nc2cc(C)[nH]n2)nc(C(C)(C)c2ccccc2)n1` [IIId-20]: the inhibition constant Ki on GSK-3β (AA 1-420) was below 100 nM; on Aurora-2, 100 to 1000 nM.
Take `COc1ccc(Sc2nc(Nc3cc(C4CC4)[nH]n3)c3ccccc3n2)cc1OC` [IIa-25, (5-Cyclopropyl-2H-pyrazol-3-yl)-[2-(3,4-dimethoxyphenylsulfanyl)-quinazolin-4-yl]-amine]: the figures for the Ki on GSK-3β (AA 1-420) and at Aurora-2 were 1000 to 7000 nM and below 100 nM, respectively.
In the case of `CC(=O)Nc1ccc(Sc2nc(Nc3cc(C)[nH]n3)c3ccc([N+](=O)[O-])cc3n2)cc1` [IIa-53, [2-(4-Acetamido-phenylsulfanyl)-7-nitroquinazolin-4-yl]-(5-methyl-2H-pyrazol-3-yl)-amine], the inhibition constant (Ki) on Aurora-2 is below 100 nM.
Same read-out and setting: under `CC(=O)Nc1ccc(Sc2nc(Nc3cc(C)[nH]n3)c3ccc(NO)cc3n2)cc1` [IIa-56, [2-(4-Acetamido-phenylsulfanyl)-7-hydroxyaminoquinazolin-4-yl]-(5-methyl-2H-pyrazol-3-yl)-amine] stands below 100 nM.
Regarding `Cc1cc(Nc2nc(Nc3cccc(Cl)c3)nc3ccccc23)n[nH]1` [IIc-11, [2-(3-Chlorophenylamino)-quinazolin-4-yl]-(5-methyl-2H-pyrazol-3-yl)-amine], the inhibition constant Ki at GSK-3β (AA 1-420) and at Aurora-2 was below 100 nM each time.
With `c1ccc(CCNc2nc(Nc3cc(C4CC4)[nH]n3)c3ccccc3n2)cc1` [IIc-28, (5-Cyclopropyl-2H-pyrazol-3-yl)-(2-phenetylamino-quinazolin-4-yl)-amine], the inhibitory constant (Ki) at GSK-3β (AA 1-420) is 100 to 1000 nM; at Aurora-2 it was below 100 nM.
As to `COc1cccc(Nc2nc(Nc3cc(C)[nH]n3)c3ccccc3n2)c1` [IIc-56, [2-(3-Methoxyphenylamino)-quinazolin-4-yl]-(5-methyl-2H-pyrazol-3-yl)-amine], the Ki on GSK-3β (AA 1-420) was 100 to 1000 nM; at Aurora-2 it was below 100 nM.
For the compound `COc1ccc(Nc2nc(Nc3cc(C)[nH]n3)c3ccccc3n2)cc1-c1ccccc1` [IIc-58, [2-(2-Methoxybiphenyl-5-ylamino)-quinazolin-4-yl]-(5-methyl-2H-pyrazol-3-yl)-amine], the inhibitory constant (Ki) on GSK-3β (AA 1-420) is 1000 to 7000 nM; at Aurora-2, below 100 nM.
In the case of `Cc1cc(Nc2nc(Nc3ccc4oc(=O)c5ccccc5c4c3)nc3ccccc23)n[nH]1` [IIc-62], the melting point is 293 to 298 °C. The compound further returned a Ki at GSK-3β (AA 1-420) of 1000 to 7000 nM.
Regarding `FC(F)(F)c1cccc(Nc2nc(Nc3n[nH]c4ccccc34)c3ccccc3n2)c1` [IIc-71, (1H-Indazol-3-yl)-[2-(3-trifluoromethylphenylamino)-quinazolin-4-yl]-amine], the Ki lay within 1000 to 7000 nM on GSK-3β (AA 1-420) and 1000 to 10000 nM on Aurora-2.
In the case of `Clc1ccccc1Nc1nc(Nc2n[nH]c3ccccc23)c2ccccc2n1` [IIc-75, [2-(2-Chloro-phenyl)-amino-quinazolin-4-yl]-(1H-indazol-3-yl)-amine], the results for the Ki at GSK-3β (AA 1-420) and at Aurora-2 were 100 to 1000 nM and 1000 to 10000 nM, respectively.
The corresponding values for `FC(F)(F)c1ccccc1Nc1nc(Nc2n[nH]c3ccccc23)c2ccccc2n1` [IIc-76, (1H-Indazol-3-yl)-[2-(2-trifluoromethylphenylamino)-quinazolin-4-yl]-amine] are 100 to 1000 nM and 1000 to 10000 nM.
